Assay results taken from patent publication US20130183239A1, “ISOTOPIC CARBON CHOLINE ANALOGS” (IMPERIAL COLLEGE, priority 2010, published 2013).
Where two headings read alike, the source gives them in different places.

Assays:
[1] = tested on: human melanoma (A375), prostate (PC3-M) and colon (HCT116) cancer cell lines; assay: In vitro 18F-D4-choline uptake in cancer cell lines; format: cell-based; details: hemicholinium-3 5 mM, 18F-D4-choline uptake, all three cell lines
Method: Uptake was measured in vehicle-treated (closed symbols) and hemicholinium-3-treated cells (5 mM; open symbols). Mean values+SEM are shown (n=3). Insert: representative western blot of choline kinase-α expression in the three cell lines. Actin was used as a loading control. Abbreviations: CKα, choline kinase alpha.
Cells (5×10^5) were plated into 6-well plates the night prior to analysis. On the day of the experiment, fresh growth medium, containing 40 μCi ^18F-D4-choline, was added to individual wells. Cell uptake was measured following incubation at 37° C. in a humidified atmosphere of 5% CO2 for 60 min. Plates were subsequently placed on ice, washed 3 times with ice-cold PBS and lysed in RIPA buffer (Thermo Fisher Scientific Inc., Rockford, Ill., USA; 1 mL, 10 min). […] Aliquots were snap-frozen and used for protein determination following radioactive decay using a BCA 96-well plate assay (Thermo Fisher Scientific Inc., Rockford, Ill., USA). Data were expressed as percent of total radioactivity per mg protein. For hemicholinium-3 treatment (5 mM; Sigma-Aldrich), cells were incubated with the compound 30 min prior to addition of radioactivity and for the duration of the uptake time course. […]

[2] = mouse, in vivo
Method: (§1) Radiolabeled metabolites from plasma and tissues were quantified using a method adapted from Smith G, Zhao Y, Leyton J, et al. Radiosynthesis and pre-clinical evaluation of [(18)F]fluoro-[1,2-(2)H(4)]choline. Nucl Med Biol. 2011; 38:39-51. Briefly, tumor-bearing mice under terminal anaesthesia were administered a bolus i.v. injection of one of the following radiotracers: ^11C-choline, ^11C-D4-choline (˜18.5 MBq) or ^18F-D4-choline (˜3.7 MBq), and sacrificed by exsanguination via cardiac puncture at 2, 15, 30 or 60 min post radiotracer injection. For automated radiosynthesis methodology, see Example 22. Tumor, kidney and liver samples were immediately snap-frozen in liquid nitrogen. Aliquots of heparinized blood were rapidly centrifuged (14000 g, 5 min, 4° C.) to obtain plasma. Plasma samples were subsequently snap-frozen in liquid nitrogen and kept on dry ice prior to analysis.
(§2) For analysis, samples were thawed and kept at 4° C. immediately before use. To ice cold plasma (200 μl) was added ice cold methanol (1.5 mL) and the resulting suspension centrifuged (14000 g; 4° C.; 3 min). The supernatant was then decanted and evaporated to dryness on a rotary evaporator (bath temperature, 40° C.), then resuspended in HPLC mobile phase (Solvent A: acetonitrile/water/ethanol/acetic acid/1.0 M ammonium acetate/0.1 M sodium phosphate [800/127/68/2/3/10]; 1.1 mL). Samples were filtered through a hydrophilic syringe filter (0.2 μm filter; Millex PTFE filter, Millipore, Mass., USA) and the sample (˜1 mL) then injected via a 1 mL sample loop onto the HPLC for analysis. Tissues were homogenized in ice-cold methanol (1.5 mL) using an Ultra-Turrax T-25 homogenizer (IKA Werke GmbH and Co. KG, Staufen, Germany) and subsequently treated as per plasma samples.
(§3) Samples were analyzed on an Agilent 1100 series HPLC system (Agilent Technologies, Santa Clara, Calif., USA), configured as described above, using the method of Leyton J, Smith G, Zhao Y, et al. [18F]fluoromethyl-[1, 2-2H4]-choline: a novel radiotracer for imaging choline metabolism in tumors by positron emission tomography. Cancer Res. 2009; 69:7721-7728. A μBondapak C18 HPLC column (Waters, Milford, Mass., USA; […]), stationary phase and a mobile phase comprising of Solvent A (vide supra) and Solvent B (acetonitrile/water/ethanol/acetic acid/1.0 M ammonium acetate/0.1 M sodium phosphate (400/400/68/44/88/10)), delivered at a flow rate of 3 mL/min were used for analyte separation. The gradient was set as follows: 0% B for 5 min; 0% to 100% B in 10 min; 100% B for 0.5 min; 100% to 0% B in 2 min; 0% B for 2.5 min.
(§4) A 2-tissue irreversible compartmental model was employed to fit the TACs, as has been previously established for ^11C-choline (Kenny L M, Contractor K B, Hinz R, et al. Reproducibility of [11C]choline-positron emission tomography and effect of trastuzumab. Clin Cancer Res. Aug. 15 2010; 16(16):4236-4245; and Sutinen E, Nurmi M, Roivainen A, et al. Kinetics of [(11)C]choline uptake in prostate cancer: a PET study. Eur J Nucl Med Mol. Imaging. March 2004; 31(3):317-324). An estimate of the whole blood TAC (wbTAC(t)) was derived from the PET image itself, as described above. […] Therefore it was fitted with a sum of 3 exponentials from the peak on and the fitted function was used as input function in the kinetic modeling (after metabolite correction, see below). […] The pf values were fitted to a sum of two exponentials with the constraint pf(t=0)=1 to obtain the function pf(t).

HCT116 tumors [3] = details: HCT116 tumors, dynamic PET
Method: Dynamic ^11C-choline, ^11C-D4-choline and ^18F-D4-choline imaging scans were carried out on a dedicated small animal PET scanner (Siemens Inveon PET module, Siemens Medical Solutions USA, Inc., Malvem, Pa., USA) following a bolus i.v. injection in tumor-bearing mice of either ˜3.7 MBq for ^18F studies, or ˜18.5 MBq for ^11C. Dynamic scans were acquired in list mode format over 60 min. The acquired data were then sorted into 0.5 mm sinogram bins and 19 time frames for image reconstruction (4×15 s, 4×60 s, and 11×300 s), which was done by filtered back projection. For input function analysis, data were sorted into 25 time frames for image reconstruction (8×5 s, 1×20 s, 4×40 s, 1×80 s, and 11×300 s). The Siemens Inveon Research Workplace software was used for visualization of radiotracer uptake in the tumor; 30 to 60 min cumulative images of the dynamic data were employed to define 3-dimensional (3D) regions of interest (ROIs). Arterial input function was estimated as follows: a single voxel 3D ROI was manually drawn in the center of the heart cavity using 2 to 5 min cumulative images. Care was taken to minimize ROI overlap with the myocardium. The count densities were averaged for all ROIs at each time point to obtain a time versus radioactivity curve (TAC). Tumor TACs were normalized to injected dose, measured by a VDC-304 dose calibrator (Veenstra Instruments, Joure, The Netherlands), and expressed as percentage injected dose per mL tissue. The area under the TAC, calculated as the integral of % ID/mL from 0-60 min, and the normalized uptake of radiotracer at 60 min (% ID/mL60) were also used for comparisons.
as §4, with “pf(t). The parent whole blood TAC wbTACPAR(t) was then computed by multiplying wbTAC(t) and pf(t) and used as input function to estimate the parameters K1 (mL/cm^3/min), k2 (1/min), k3 (1/min) and Vb (unitless). The steady state net irreversible uptake rate constant Ki (mL/cm^3/min) was calculated from the estimated microparameters as K1k3/(k2+k3).” for “pf(t).”

HCT116 tumors [4] = details: mouse, in vivo
Method: as §1, §2, §3
^11C-choline, ^11C-D4-choline and ^18F-D4-choline metabolism were measured in HCT116 tumors (FIG. 22).

[5] = mouse, in vivo; remark: listed apart in the source
Method: ^11C-choline, ^11C-D4-choline (˜18.5 MBq) and ^18F-D4-choline (˜3.7 MBq) were each injected via the tail vein of anaesthetized BALB/c nude mice. The mice were maintained under anesthesia and sacrificed by exsanguination via cardiac puncture at 2, 15, 30 or 60 min post radiotracer injection to obtain blood, plasma, heart, lung, liver, kidney and muscle. Tissue radioactivity was determined on a gamma counter (Cobra II Auto-Gamma counter, Packard Biosciences Co, Pangbourne, UK) and decay corrected. Data were expressed as percent injected dose per gram of tissue.
Time course biodistribution was performed in non-tumor-bearing male nude mice with ^11C-choline, ^11C-D4-choline and ^18F-D4-choline tracers.

Structure (SMILES) | decrease in intracellular tracer radioactivity [1] [%] | liver radioactivity as betaine ([2]; BALB/c nude, 2 min) [%] | plasma radioactivity in the form of betaine ([2]; BALB/c nude, 2 min) [%] | plasma radioactivity in the form of betaine ([2]; BALB/c nude, 15 min) [%] | tumor tracer kinetics between 30 and 60 min (HCT116 tumors [3]) | tumor betaine-to-phosphocholine metabolite ratio increase compared to 18F-D4-choline (HCT116 tumors [4]; BALB/c nude) [%] | increase in the ratio of betaine:phophocholine in comparison to 18F-D4-choline (HCT116 tumors [4]; BALB/c nude, 15 min) [%] | tumor radioactivity corresponding to phosphocholine (HCT116 tumors [4]; BALB/c nude, 15 min) [%] | increase in the ratio of betaine:phophocholine in comparison to 18F-D4-choline (HCT116 tumors [4]; BALB/c nude, 60 min) [%] | tumor betaine radioactivity (HCT116 tumors [4]; BALB/c nude, 60 min) [%] | increase in kidney retention compared to 11C-choline [5] [fold] | urinary excretion [5] | liver radioactivity as betaine [2] [%] | tumor betaine-to-phosphocholine metabolite ratio increase compared to 18F-D4-choline (HCT116 tumors [4]) [%] | tumor radioactivity corresponding to phosphocholine (HCT116 tumors [4]) [%]
C[N+]1(C)CCOC(O)(c2ccc(-c3ccc(C4(O)C[N+](C)(C)CCO4)cc3)cc2)C1.[Br-].[Br-] (stereo not shown) [hemicholinium-3, reference compound] | > 90 |  |  |  |  |  |  |  |  |  |  |  |  |  | 
C[N+](C)([11CH3])CCO [^11C-choline, reference compound] |  | 49.2±7.7 | 12.1±2.6 | 78.6±4.4 | gradual accumulation | 388 | 388 | 30.5±4.0 | 230 | 28.1±2.9 |  |  |  |  | 
[2H]C([2H])(O)C([2H])([2H])[N+](C)(C)[11CH3] [^11C-D4-choline, ^11C-[1,2-^2H4]choline] |  |  |  |  | Slow wash-out of activity |  |  |  |  |  | 1.8 | trend towards increased urinary excretion | 24.5±2.1 | 259 | 43.8±1.5
